Here are results for seven compounds from patent publication US5703093A, “Compounds and methods for the treatment of cardiovascular, inflammatory and immune disorders” (Cytomed, Inc., priority 1995, dated 1997).

Experiment [1] concerns the target T1, Cytosol 5-Lipoxygenase of Rat Basophile Leukemia Cells (Rattus norvegicus, UniProt P12527).
T1 construct: The supernatant was then removed and stored in aliquots; endogenous in cells; host or cells: RBL-2H3 (rat basophilic leukemia) cells, sonicate, 20,000 x g supernatant
T1 sequence (P12527 1-673): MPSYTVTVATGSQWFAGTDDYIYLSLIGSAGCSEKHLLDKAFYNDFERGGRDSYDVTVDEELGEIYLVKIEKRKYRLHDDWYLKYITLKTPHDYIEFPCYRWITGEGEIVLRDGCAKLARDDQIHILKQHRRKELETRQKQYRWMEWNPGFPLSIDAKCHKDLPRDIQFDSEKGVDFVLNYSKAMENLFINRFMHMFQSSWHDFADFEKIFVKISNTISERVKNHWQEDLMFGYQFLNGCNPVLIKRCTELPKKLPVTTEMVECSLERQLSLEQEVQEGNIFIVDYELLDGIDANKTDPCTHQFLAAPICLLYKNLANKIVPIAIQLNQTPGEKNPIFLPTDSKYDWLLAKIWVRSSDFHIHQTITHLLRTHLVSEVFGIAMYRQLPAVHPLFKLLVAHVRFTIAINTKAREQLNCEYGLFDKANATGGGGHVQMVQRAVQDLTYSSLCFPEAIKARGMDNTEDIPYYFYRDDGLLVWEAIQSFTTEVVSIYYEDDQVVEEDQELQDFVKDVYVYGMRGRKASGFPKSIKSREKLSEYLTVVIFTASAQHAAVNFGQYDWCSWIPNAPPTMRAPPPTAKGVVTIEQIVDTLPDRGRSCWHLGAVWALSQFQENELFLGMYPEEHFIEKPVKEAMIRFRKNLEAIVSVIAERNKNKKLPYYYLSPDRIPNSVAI
The experiment is described as follows: Effect on cytosol 5-lipoxygenase of rat basophile leukemia (RBL-2H3) cells. To be noted: RBL-2H3 cytosol preparation, [14C]arachidonic acid; repeat determinations. It counts as biochemical. As for the experimental part:
A wide variety of biological assays have also been used to evaluate the ability of a compound to inhibit the enzyme 5-lipoxygenase. For example, a cytosol 5-lipoxygenase of rat basophilic leukemia cells (RBL) has been widely utilized in studies on leukotriene biosynthesis. Compounds that inhibit 5-lipoxygenase decrease the levels of leukotrienes.
Effect of Compounds on Cytosol 5-Lipoxygenase of Rat Basophile Leukemia Cells
RBL-2H3 cells were grown to confluence in tissue culture flasks according to Carter et al. (J PharmExp Ther 256(3); 929-937, 1991). The cells were harvested and washed five times in calcium-and magnesium-free D-PBS. The cells were suspended at 2×10^7 /ml in 10 mM BES, 10 mM PIPES, pH 6.8, 1 mM EDTA, and then sonicated. […]
The 5-LO activity in the RBL-2H3 preparation was determined as follows: 0.1 ml reactions consisting of 0.7 mM CaCl2, 100 mM NaCl, 1 mM EDTA, 10 mM BES, 10 MM PIPES, pH 7.4, varying concentrations of test compound dissolved in DMSO (7.5% DMSO final in assay), and an amount of the RBL-2H3 preparation that will convert 15% of the arachidonic acid substrate mixture to oxygenated products (determined experimentally for each RBL-2H3 preparation), were incubated for 20 minutes at room temperature. […] The film was developed, scanned using a densitometer, and the peak areas of arachidonic acid and its product(s) are calculated. […]

Experiment [2] relates to Leukotriene B4 Production in Ionophore-stimulated human whole blood. The experiment is described as follows: Inhibition of leukotriene B4 production in ionophore-stimulated human whole blood (HWB). The conditions noted are these: A23187-stimulated, LTB4 by EIA, repeat determinations. It counts as cell-based. The procedure: Another biological assay used to evaluate the ability of a compound to inhibit the enzyme 5-lipoxygenase is based on the classic pharmacological model of inflammation induced by inhibition of LTB4 from ionophore stimulated human whole blood.
Inhibition of Leukotriene B4 Production in Ionophore-stimulated human whole blood
Human blood was drawn into heparinized blood collection tubes, and aliquoted in 1 ml portions into 1.5 ml microfuge tubes. Test compound ([…]) of varying concentrations, dissolved in DMSO, was added to the blood sample and incubated for 15 minutes at 37° C. Calcium ionophore ([…], A23187) in DMSO was added to a final concentration of […], and the samples were incubated for 30 minutes at 37° C. Samples are then centrifuged at 1100×g (2500 rpm, H1000B rotor, in a Sorvall centrifuge) for 10 minutes at 4° C. Supernatant ([…]) was transferred into a 1.5 ml microfuge tube, […] of cold methanol added, and proteins precipitated on ice for 30 minutes. The samples were centrifuged at 110×g for 10 minutes at 4° C., and the supernatant assayed for LTB4 using a commercially available EIA kit (Cayman Chemical) according to manufacturer's specifications.

The test system of experiment [3] is whole blood 5-lipoxygenase (LTB4). The experiment is described as follows: Ex-vivo rat whole blood 5-lipoxygenase evaluation (ex vivo LTB4). It counts as in vivo.
Experiment [4] has the same test system. The experiment can be described thus: Ex-vivo mouse whole blood 5-lipoxygenase evaluation (ex vivo LTB4). Format: in vivo. To be noted: 3 mg/k iv. The procedure:
Ex-vivo mouse whole blood 5-lipoxygenase evaluation
CD-1 female mice, weighing 18-25 grams, and CD female rats, weighing 150-230 grams, were obtained from Charles River Labs. Test compounds were dissolved in 0.5% DMSO in 0.9% NaCl for administration in mice (0.5 mg/ml) and in an alcohol vehicle (2% benzyl alcohol, 1% ethanol, 40% PEG 300, 10% propylene glycol, 47% of 5% dextrose and 3.5% pluronic F-68 in DiH2 O) for use in rats (5 mg/ml). […] Heparinized whole blood (0.3 ml) was added into 1.5 ml Eppendorf centrifuge tube containing […] of 2 mM calcium ionophore A23187 (the final concentration of A23187 was […]). The sample was incubated for 30 minutes in a water bath at 37° C., and then centrifuged for 2 minutes. The plasma was diluted (x120) and assayed for LTB4 using EIA.

The target in the next experiment is PAF (Homo sapiens, UniProt P25105). The conditions noted are these: reported in the literature; cited from earlier work.
A further experiment has as its target T2, 5-lipoxygenase (Homo sapiens, UniProt P09917).
T2 sequence (P09917 1-674): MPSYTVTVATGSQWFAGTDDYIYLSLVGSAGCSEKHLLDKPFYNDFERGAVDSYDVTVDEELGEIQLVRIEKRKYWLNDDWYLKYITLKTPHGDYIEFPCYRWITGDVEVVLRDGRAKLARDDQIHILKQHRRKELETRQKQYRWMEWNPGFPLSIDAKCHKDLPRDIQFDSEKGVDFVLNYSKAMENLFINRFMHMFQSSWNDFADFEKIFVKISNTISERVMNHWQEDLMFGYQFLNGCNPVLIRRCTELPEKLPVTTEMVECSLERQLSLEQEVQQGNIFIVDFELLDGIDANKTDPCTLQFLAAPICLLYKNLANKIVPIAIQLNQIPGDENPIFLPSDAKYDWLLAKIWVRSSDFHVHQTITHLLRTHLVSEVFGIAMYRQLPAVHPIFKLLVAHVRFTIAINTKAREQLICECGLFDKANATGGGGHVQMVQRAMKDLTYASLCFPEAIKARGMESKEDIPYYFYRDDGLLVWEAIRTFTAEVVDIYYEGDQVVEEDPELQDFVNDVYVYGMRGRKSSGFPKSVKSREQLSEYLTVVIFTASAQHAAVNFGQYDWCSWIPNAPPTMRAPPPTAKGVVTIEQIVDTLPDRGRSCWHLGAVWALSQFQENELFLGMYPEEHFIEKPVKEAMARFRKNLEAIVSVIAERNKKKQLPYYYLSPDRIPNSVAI
To be noted: reported in the literature; cited from earlier work.

Where “and” joins values, the source holds several entries; their conditions need not be identical. Equal entries are not always repeated.

Chain of PAF (P25105 whole entry): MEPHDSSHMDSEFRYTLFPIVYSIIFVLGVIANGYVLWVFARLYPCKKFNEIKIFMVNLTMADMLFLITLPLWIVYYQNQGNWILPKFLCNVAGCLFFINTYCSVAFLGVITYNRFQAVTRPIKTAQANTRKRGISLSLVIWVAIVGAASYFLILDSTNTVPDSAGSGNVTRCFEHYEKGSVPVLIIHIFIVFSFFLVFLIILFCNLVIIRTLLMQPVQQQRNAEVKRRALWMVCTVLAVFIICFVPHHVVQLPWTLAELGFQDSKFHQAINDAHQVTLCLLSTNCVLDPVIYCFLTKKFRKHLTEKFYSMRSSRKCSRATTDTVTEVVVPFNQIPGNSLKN

As a reminder, the IC50 is the concentration at which inhibition is half-maximal. A low value points to greater potency in that assay. Take `NC(=O)N(O)CCC#C[C@H]1CC[C@@H](COc2ccc(F)cc2)O1`: the IC50 in experiment [1] was 2000 nM and 1260 nM and 1560 nM and 880 nM; in experiment [2], 520 nM; in experiment [2] (Homo sapiens), 430 nM. For the same compound, the “ex vivo LTB4 % inh.” value in experiment [3] (2 mg/k po, 60 minutes) was found to be 86%; in experiment [3] (2 mg/k po, 360 minutes) it was 63%.

In the case of `NC(=O)N(O)CCC#C[C@@H]1CC[C@H](COc2ccc(F)cc2)O1`, inhibition in experiment [2] (Homo sapiens) was half-maximal at 180 nM (IC50).

Take `NC(=O)N(O)CCCC[C@H]1CC[C@H](COc2ccc(F)cc2)O1` (single isomer, unassigned): inhibition in experiment [2] (Homo sapiens) was half-maximal at 420 nM (IC50).

Consider `NC(=O)N(O)CCC#C[C@@H]1CC[C@@H](COc2ccc(F)cc2)O1`, for which the “ex vivo LTB4 % inh.” value was 94% in experiment [4] (15 minutes); 86% in experiment [4] (60 minutes); 44% in experiment [4] (180 minutes); 93% in experiment [3] (2 mg/k po, 60 minutes); 5% in experiment [3] (2 mg/k po, 360 minutes); 29% in experiment [3] (5 mg/k po, 900 minutes).

`NC(=O)N(O)CCC#C[C@H]1CC[C@H](COc2ccc(F)cc2)O1`: the IC50 was 1350 nM and 1380 nM in experiment [1]; 270 nM in experiment [2]; 150 nM in experiment [2] (Homo sapiens).

As to `NC(=O)N(O)CCCC[C@@H]1CC[C@@H](COc2ccc(F)cc2)O1`, in experiment [2] (Homo sapiens), the IC50 turned out to be 153 nM. The “ex vivo LTB4 % inh.” value was found to be 89% in experiment [4] (15 minutes); 22% in experiment [4] (60 minutes); 36% in experiment [4] (180 minutes); 34% in experiment [3] (2 mg/k po, 900 minutes); 34% in experiment [3] (5 mg/k po, 900 minutes).

As to `COc1cc([C@H]2CC[C@H](c3cc(OC)c(OC)c(OC)c3)S2)cc(OC)c1OC` (relative stereo) [L-653,150, trans-2,5-bis-(3,4,5-trimethoxyphenyl)tetrahydrothiophene], the PAF antagonism result at PAF is given as “potent PAF antagonist”. Further, the “inhibition of 5-lipoxygenase” value at 5-lipoxygenase is “moderate inhibitor of 5-lipoxygenase”.
